The test system of assay [1] is TRPV6. Nature of the assay: TRPV6 gene activation assay (TRPV6 mRNA, QuantiGene 2.0) in differentiated C2BBe1 cells. The format is cell-based, human. The settings on record: for Max. Stim., TRPV6 activation: C2BBe1 cells, fold change over DMSO normalized to 1,25D3 = 100%; for EC50: C2BBe1 cells differentiated 6 days, 24 h. As to the method: C2BBe1 (a clone of CaCO2) cells (CRL-2101, American Type Culture Collection, Manassas, VA) were maintained in DMEM (ATCC 30-2002) supplemented with 10% FBS and insulin-transferrin-selenium-G supplement (Invitrogen, Carlsbad, CA). For TRPV6 expression analysis, cells were plated in 96-well tissue culture treated plates (40,000 per well) in differentiation medium (DMEM containing 5% charcoal-stripped FBS and insulin-transferrin-sodium selenite supplement (ITS)). Cells were allowed to differentiate for 6 days with medium replacement every other day before compound treatment. The medium was removed, and serial dilutions of 1,25D3 or VDRMs in concentrations ranging from 10 μM to 2 nM in differentiation medium were added. After 24 h, the medium was removed, and cell plates were sealed and frozen at −80 °C until assayed. QuantiGene 2.0 Assay Kit (Affymetrix QS0009) was used to quantitate TRPV6 and housekeeping gene GUSB mRNA levels. Following the kit instructions, lysis buffer was added to the frozen cells and incubated briefly at 55 °C […]. Following an overnight incubation the capture plates were washed and the probes amplified following kit instructions. The resulting luminescence signal was detected on an Envision plate reader (Perkin Elmer). TRPV6 signal was normalized using the GUSB signal and the resulting data was fit to a 4-parameter logistic to determine EC50 values.

In assay [2] the target is T1, RXRα (Homo sapiens, UniProt P19793).
T1 construct: Flag; made in house; host or cells: baculovirus system
T1 sequence (P19793 1-462): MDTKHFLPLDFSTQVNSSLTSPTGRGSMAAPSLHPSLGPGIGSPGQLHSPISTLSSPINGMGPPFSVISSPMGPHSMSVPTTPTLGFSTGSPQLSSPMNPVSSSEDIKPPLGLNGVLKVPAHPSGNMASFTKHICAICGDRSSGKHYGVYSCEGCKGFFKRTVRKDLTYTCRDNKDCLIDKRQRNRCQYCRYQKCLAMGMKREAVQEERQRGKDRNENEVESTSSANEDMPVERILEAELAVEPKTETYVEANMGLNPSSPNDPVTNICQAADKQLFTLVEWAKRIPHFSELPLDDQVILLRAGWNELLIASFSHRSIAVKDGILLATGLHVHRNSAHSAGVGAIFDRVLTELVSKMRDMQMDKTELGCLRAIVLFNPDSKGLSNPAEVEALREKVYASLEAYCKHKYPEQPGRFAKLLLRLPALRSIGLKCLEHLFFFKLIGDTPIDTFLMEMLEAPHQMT
Nature of the assay: Differential HDX-MS of RXRα alone with and without ligand. Format: binding. The settings on record: without VDR. Here is the method: Full-length WT His-hVDR (Δ (151–190)) and WT Flag-h RXRα were expressed in a baculovirus system and purified by Ni-NTASEC or Flag-SEC, respectively. His-hSRC1 RID (627–786) variant 1 (NM_003743) was expressed in Escherichia coli (BL21 DE3) and purified using His-Trap (GE Healthcare). The final protein buffer was 50 mM Tris (pH 8.0), 150 mM NaCl, 10% glycerol and 2 mM DTT. The purity of each protein was > 95% and was verified using SDS-PAGE, western blot and MALDI MS.
HDX-MS analysis: 10 μM of the apo protein was mixed with 1:10 molar excess of ligand and incubated for 2 h at 4 °C for complex formation before subjecting them to HDX analysis. […] The intensity weighted mean m/z centroid value of each peptide envelope was calculated and subsequently converted into a percentage of deuterium incorporation. […] In the absence of a fully deuterated control, 100% deuterium incorporation was calculated theoretically, and corrections for back-exchange were made on the basis of an estimated 70% deuterium recovery and accounting for 79.9% final deuterium concentration in the sample (1:5 dilution in D2O HDX buffer). Statistical significance for the differential HDX data is determined by an unpaired t-test for each time point, a procedure that is integrated into the HDX Workbench software. […]

Setting [3] is: Homo sapiens, average of replicate runs.

Results on 3 molecules are retold here after article PMC5640644, “HDX reveals the conformational dynamics of DNA sequence specific VDR co-activator interactions” (Nature Communications, 2017).

Bounds are passed on as bounds.

Take `CCC(CC)(c1ccc(OCC(O)C(C)(C)C)c(C)c1)c1ccc(C(=O)N(C)CC(=O)O)c(C)c1` (stereo not shown) [Cmpd1, [(4-{1-ethyl-1-[4-(2-hydroxy-3,3-dimethyl-butoxy)-3-methyl-phenyl]-propyl}-2-methyl-benzoyl)-methyl-amino]-acetic acid]: the “Max. Stim., TRPV6 activation” value in assay [1] was found to be 80.3%. This molecule came in with an EC50 in assay [1] (setting [3]) of 63 nM. In addition, the “conformational changes of RXRα upon ligand binding (HDX)” value in assay [2] is listed as “no detectable conformational changes”.

`CCC(CC)(c1ccc(OCC(O)C(C)(C)C)c(C)c1)c1cc(C)c(C(=O)Nc2nnn[nH]2)s1` (stereo not shown) [Cmpd3, 3'-[4-(2-hydroxy-3,3-dimethylbutoxy)-3-methylphenyl]-3'-[5-(tetrazol-5-yl-aminocarbonyl)-4-methylthiophen-2-yl]pentane]: in assay [1] (top concentration 10 μM), the half-maximal effective concentration (EC50) is more than 10000 nM. The “Max. Stim., TRPV6 activation” value in assay [1] was 17.4%.

Regarding `CCc1cc(C(CC)(CC)c2ccc(OCC(O)C(C)(C)C)c(C)c2)sc1C(=O)N[C@@H](C)C(=O)O` (single isomer, unassigned) [Cmpd2, L-2-[(5-{1-Ethyl-1-[4-(2-hydroxy-3,3-dimethyl-butoxy)-3-methyl-phenyl]-propyl}-3-ethyl-thiophene-2-carbonyl)-amino]-propionic acid], the “Max. Stim., TRPV6 activation” value in assay [1] worked out at 98.2%. For the same molecule, a half-maximal effect in assay [1] (setting [3]) (EC50) was put at 395 nM.
